We go through six compounds from US8138189B2, “Substituted benzene compounds as modulators of the glucocorticoid receptor” (Hoffman-La Roche Inc., priority 2009, dated 2012).

In data set [1] the target is T1, full length human recombinant glucocorticoid receptor (Homo sapiens, UniProt P04150).
T1 construct: partially purified full length human recombinant glucocorticoid receptor; purchased Panvera/Invitrogen PV4302
T1 sequence (P04150 1-777): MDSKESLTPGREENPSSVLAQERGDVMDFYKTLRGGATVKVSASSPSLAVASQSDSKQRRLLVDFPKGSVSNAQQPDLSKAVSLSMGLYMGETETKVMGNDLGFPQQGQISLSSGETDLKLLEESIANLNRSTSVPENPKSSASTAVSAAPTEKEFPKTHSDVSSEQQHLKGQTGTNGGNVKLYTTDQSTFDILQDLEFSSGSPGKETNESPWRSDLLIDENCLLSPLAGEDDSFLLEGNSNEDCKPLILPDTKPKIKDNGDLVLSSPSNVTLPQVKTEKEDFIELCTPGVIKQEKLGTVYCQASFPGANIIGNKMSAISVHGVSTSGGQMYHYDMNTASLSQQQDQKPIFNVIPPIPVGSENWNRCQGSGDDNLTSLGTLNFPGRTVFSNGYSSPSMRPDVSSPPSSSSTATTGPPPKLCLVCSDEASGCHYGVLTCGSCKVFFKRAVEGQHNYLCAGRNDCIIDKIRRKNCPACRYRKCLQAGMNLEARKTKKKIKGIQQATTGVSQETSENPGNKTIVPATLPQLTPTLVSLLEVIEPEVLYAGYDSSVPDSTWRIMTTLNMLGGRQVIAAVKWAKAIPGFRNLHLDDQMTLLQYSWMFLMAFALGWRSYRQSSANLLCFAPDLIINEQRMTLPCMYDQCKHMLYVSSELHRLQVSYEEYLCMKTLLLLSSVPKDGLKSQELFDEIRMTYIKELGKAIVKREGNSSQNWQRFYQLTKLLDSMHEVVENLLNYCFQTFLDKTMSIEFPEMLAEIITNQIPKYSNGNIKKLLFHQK
As to the kind of experiment: Glucocorticoid Receptor Binding Assay (fluorescence polarization competitor assay, Fluormone GS Far Red tracer). An outline of the steps: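 Serially diluted compounds competed with the tight-binding far-red fluorescent ligand for recombinant full-length human glucocorticoid receptor plus GR-stabilizing peptide (screening buffer pH 7.4; 3 h, 22 °C, dark). Polarization (610-660 nm) gave IC50 via sigmoidal dose-response fits, and Ki was derived by Cheng-Prusoff from tracer concentration and Kd.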
(In general: Polarisation of emitted light reports the rotation of a fluorescent probe.)

In a further data set the test system is normal volunteers. As to conditions: acute; cited from earlier work.
A further data set concerns Cushing's patients. As to conditions: chronic; cited from earlier work.
The next data set deals with ob/ob mice. To be noted: cited from earlier work.
Another data set relates to db/db mice. As to conditions: cited from earlier work.
The test system of data set [2] is Hypothalamus-Pituitary gland-Adrenal gland (HPA) axis. To be noted: cited from earlier work.

As usually defined, the Ki is a measure of affinity in units of concentration, obtained from inhibition or displacement.

For the compound `Cc1cc([C@](O)([C@H](C)c2ccc(Oc3ccc(C(=O)O)cc3Cl)cc2Cl)C(F)(F)F)cn(C)c1=O` [Example 245, 3-Chloro-4-{3-chloro-4-[(1R,2R)-2-(1,5-dimethyl-6-oxo-1,6-dihydro-pyridin-3-yl)-3,3,3-trifluoro-2-hydroxy-1-methyl-propyl]-phenoxy}-benzoic acid], in data set [1], the Ki came to 400 pM.
Regarding `Cc1cc([C@@](O)([C@@H](C)c2ccc(Oc3ccc(C(=O)O)cn3)cc2Cl)C(F)(F)F)cn(C)c1=O` [Example 246, 6-{3-Chloro-4-[(1S,2S)-2-(1,5-dimethyl-6-oxo-1,6-dihydro-pyridin-3-yl)-3,3,3-trifluoro-2-hydroxy-1-methyl-propyl]-phenoxy}-nicotinic acid], the Ki in data set [1] was 500 pM.
Still for that read-out and setting: with `Cc1cc([C@](O)([C@H](C)c2ccc(Oc3ccc(C(=O)O)cn3)cc2Cl)C(F)(F)F)cn(C)c1=O` [Example 247, 6-{3-Chloro-4-[(1R,2R)-2-(1,5-dimethyl-6-oxo-1,6-dihydro-pyridin-3-yl)-3,3,3-trifluoro-2-hydroxy-1-methyl-propyl]-phenoxy}-nicotinic acid] the figure was 14800 pM; with `Cc1cc([C@@](O)([C@@H](C)c2ccc(Oc3ccc(C(=O)O)c(F)c3)cc2Cl)C(F)(F)F)cn(C)c1=O` [Example 248, 4-{3-Chloro-4-[(1S,2S)-2-(1,5-dimethyl-6-oxo-1,6-dihydro-pyridin-3-yl)-3,3,3-trifluoro-2-hydroxy-1-methyl-propyl]-phenoxy}-2-fluoro-benzoic acid], 500 pM.
As to `Cc1cc([C@](O)([C@H](C)c2ccc(Oc3ccc(C(=O)O)c(F)c3)cc2Cl)C(F)(F)F)cn(C)c1=O` [Example 249, 4-{3-Chloro-4-[(1R,2R)-2-(1,5-dimethyl-6-oxo-1,6-dihydro-pyridin-3-yl)-3,3,3-trifluoro-2-hydroxy-1-methyl-propyl]-phenoxy}-2-fluoro-benzoic acid], the Ki in data set [1] was determined as 4200 pM.
As to `CC#C[C@]1(O)CC[C@H]2[C@@H]3CCC4=CC(=O)CCC4=C3[C@@H](c3ccc(N(C)C)cc3)C[C@@]21C` [RU486/mifepristone, mifepristone], the fasting plasma glucose result in the data set with normal volunteers was “decrease of fasting plasma glucose”; in the data set with ob/ob mice, “normalizes fasting plasma glucose”. Moreover, the “plasmatic HbA1c” value in the data set with Cushing's patients is reported as “decrease of plasmatic HbA1c”. Further, the “activity of gluconeogenic enzymes” value in the data set with db/db mice is reported as “normalizes”. Besides, the “effect on HPA axis / endogenous corticosteroids circulating in the blood” value in data set [2] (feed-back mechanism) was “increase of endogenous corticosteroids circulating in the blood”. Further, the adrenal insufficiency symptoms entry in data set [2] (long term treatment (up to 1 year)) is “induces some adrenal insufficiency symptoms”.
